SMILES strings stand for the structures.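 Briefly, cells in 96-well plates were exposed to five compound concentrations for 48 h, and endpoints were estimated by linear interpolation. Here, GI50 denotes the concentration required for 50% inhibition of growth. TGI: total growth inhibition.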

Among the test systems are SW-620 colon; OVCAR-4 ovarian; MCF7 breast; SF-539 CNS; COLO 205 colon; NCI-H522 lung; OVCAR-5 ovarian; HOP-92 NSCLC; SF-268 CNS; NCI-H23 lung.
Common to all, as to assay: inhibition of tumour cell growth, NCI panel, 48 h

In the case of `Clc1ccc(C2CC(c3cccc(Nc4ccncc4)c3)=NN2c2cc(Cl)cc(Cl)c2)cc1` (stereo not given), the GI50 with SW-620 colon was 1.84 µM; in the assay on OVCAR-4 ovarian, 1.8 µM; in the assay on MCF7 breast it was 2.05 µM; with SF-539 CNS it was 1.69 µM; in the assay with COLO 205 colon, 2.14 µM; in the assay on NCI-H522 lung it was 1.86 µM. In addition, the GI50 with OVCAR-5 ovarian was 1.78 µM; in the assay on HOP-92 NSCLC, 1.51 µM; with SF-268 CNS it was 1.78 µM; with NCI-H23 lung it was 1.71 µM. For the same compound, the TGI is 3.86 µM in the assay on SW-620 colon; 3.39 µM in the assay on OVCAR-4 ovarian; 4.73 µM in the assay on MCF7 breast; 3.2 µM in the assay on SF-539 CNS; 4.62 µM in the assay with COLO 205 colon; 3.79 µM with NCI-H522 lung. Moreover, the TGI came to 3.33 µM with OVCAR-5 ovarian, 2.99 µM in the assay with HOP-92 NSCLC, 3.59 µM with SF-268 CNS and 3.34 µM in the assay with NCI-H23 lung.

Source of the values: PubChem BioAssay (NCI).
